From ChEMBL document CHEMBL5726270, “1-pyrazolyl-3-(4-((2-anilinopyrimidin-4-yl)oxy)napththalen-1-yl) ureas as P38 MAP knase inhibitors” (2017)

Molecular target: T1, Mitogen-activated protein kinase 12 (Homo sapiens, UniProt P53778)
T1 sequence (P53778 whole entry): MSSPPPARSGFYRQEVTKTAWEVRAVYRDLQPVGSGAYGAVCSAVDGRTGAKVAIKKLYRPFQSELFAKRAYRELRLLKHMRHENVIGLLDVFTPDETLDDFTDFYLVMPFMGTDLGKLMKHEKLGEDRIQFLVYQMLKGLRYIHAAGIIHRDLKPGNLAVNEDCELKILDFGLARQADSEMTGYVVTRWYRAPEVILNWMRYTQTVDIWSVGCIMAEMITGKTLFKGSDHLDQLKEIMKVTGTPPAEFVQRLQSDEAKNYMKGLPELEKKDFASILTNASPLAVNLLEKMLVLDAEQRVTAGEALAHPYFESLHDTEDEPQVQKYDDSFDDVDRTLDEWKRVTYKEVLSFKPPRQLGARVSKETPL
Experiment: p38 MAPKγ Enzyme Inhibition: The inhibitory activities of compounds of the invention against p38MAPKγ (MAPK12: Invitrogen), were evaluated in a similar fashion to that described hereinabove. The enzyme (800 ng/mL, 2.5 μL) was incubated with the test compound (2.5 μL at either 4 μg/mL, 0.4 μg/mL, 0.04 μg/mL, or 0.004 μg/mL) for 2 hr at RT. The FRET peptides (8 μM, 2.5 μL), and appropriate ATP solution (2.5 μL, 400 μM) was then added to the enzymes/compound mixtures and incubated for 1 hr. Development reagent (protease, 5 μL) was added for 1 hr prior to detection in a fluorescence microplate reader (Varioskan® Flash, Thermo Scientific).

- IC50: > 15.1 µM
Structure (SMILES): Cc1ccc(-n2nc(C(C)(C)C)cc2NC(=O)Nc2ccc(Oc3ccnc(Nc4ccccc4Cl)n3)c3ccccc23)cc1
